For experiment [1], the target named is T1, BTB/POZ domain-containing protein KCTD12 (Homo sapiens, UniProt Q96CX2). Kind of experiment: Binding affinity to recombinant human 6X His-tagged KCTD12 T1 domain (27 to 131 residues) expressed in Escherichia coli BL21 DE3 cells preincubated for 1 hr followed by probing with HRP-conjugated 6X-His tag antibody for 0.5 hrs by SPOT peptide microarray analysis.

In experiment [2] the target is T1, BTB/POZ domain-containing protein KCTD12. Kind of experiment: Displacement of TAMRA-AAG-SLQLPILHHAYLPSIGGV from recombinant human 6X His-tagged KCTD12 T1 domain (27 to 131 residues) expressed in Escherichia coli BL21 DE3 cells by fluorescence polarization assay. A general note: Fluorescence polarisation rises when a labelled molecule tumbles more slowly, as on binding a larger partner.

Experiment [3] concerns the target BTB/POZ domain-containing protein KCTD8 (Homo sapiens) (UniProt Q6ZWB6). Kind of experiment: Displacement of TAMRA-AAG-SLQLPILHHAYLPSIGGV from recombinant human 6X His-tagged KCTD8 T1 domain (37 to 148 residues) expressed in Escherichia coli BL21 DE3 cells by fluorescence polarization assay.
Experiment [4] addresses BTB/POZ domain-containing protein KCTD16 (Homo sapiens) (UniProt Q68DU8). In words: Displacement of TAMRA-AAG-SLQLPILHHAYLPSIGGV from recombinant 6X His tagged KCTD16 T1 domain (unknown origin) by fluorescence polarization assay.
Experiment [5] has the same target. In words: Binding affinity to recombinant 6X His-tagged KCTD16 T1 domain (unknown origin) assessed as high-order oligomer formation by measuring oligomer molecular weight at protein:compound concentration ratio of 1:2 by SEC-MALS analysis (reference value: […] +/- 2.5 kDa). A general note: Size exclusion chromatography separates by hydrodynamic size, large species first.

For experiment [6] the target is unchanged. In words: Binding affinity to recombinant 6X His-tagged KCTD16 T1 domain (unknown origin) assessed as increase in thermal stability of the protein at protein:compound ratio of 1:5 by Thermofluor analysis.
Experiment [7] has as its target BTB/POZ domain-containing protein KCTD8 (Homo sapiens) (UniProt Q6ZWB6). In words: Binding affinity to Myc-tagged full length KCTD8 (unknown origin) expressed in HEK293 cells using resin-bound immobilized compound by pull down analysis. The experiment is classed as cell-based.
In experiment [8] the target is BTB/POZ domain-containing protein KCTD16 (Homo sapiens) (UniProt Q68DU8). In words: Binding affinity to Myc-tagged full length KCTD16 (unknown origin) expressed in HEK293 cells using resin-bound immobilized compound by pull down analysis. The experiment is classed as cell-based.
The target of experiment [9] is BTB/POZ domain-containing protein KCTD8 (Mus musculus) (UniProt Q50H33). Kind of experiment: Binding affinity to KCTD8 in wild type mouse brain membrane using resin-bound immobilized compound incubated for overnight by pull-down experiment based immunoblot analysis. The experiment is classed as cell membranes. (A western blot detects proteins with antibodies after separation by electrophoresis.)

Experiment [10] addresses BTB/POZ domain-containing protein KCTD12 (Mus musculus) (UniProt Q6WVG3). In words: Binding affinity to KCTD12 in wild type mouse brain membrane using resin-bound immobilized compound incubated for overnight by pull-down experiment based immunoblot analysis. The experiment is classed as cell membranes.
Experiment [11] concerns the target BTB/POZ domain-containing protein KCTD16 (Mus musculus) (UniProt Q5DTY9). In words: Binding affinity to KCTD16 in wild type mouse brain membrane using resin-bound immobilized compound incubated for overnight by pull-down experiment based immunoblot analysis. The experiment is classed as cell membranes.
Experiment [12] has as its target BTB/POZ domain-containing protein KCTD8 (Mus musculus) (UniProt Q50H33). In words: Binding affinity to KCTD8 in wild type mouse brain cytoplasmic fraction using resin-bound immobilized compound incubated for overnight by pull-down experiment based immunoblot analysis. The experiment is classed as subcellular.
In experiment [13] the target is BTB/POZ domain-containing protein KCTD12 (Mus musculus) (UniProt Q6WVG3). Kind of experiment: Binding affinity to KCTD12 in wild type mouse brain cytoplasmic fraction using resin-bound immobilized compound incubated for overnight by pull-down experiment based immunoblot analysis. The format is subcellular.
Experiment [14] has as its target BTB/POZ domain-containing protein KCTD16 (Mus musculus) (UniProt Q5DTY9). In words: Binding affinity to KCTD16 in wild type mouse brain cytoplasmic fraction using resin -bound immobilized compound incubated for overnight by pull-down experiment based immunoblot analysis. The experiment is classed as subcellular.

Calls of active or inactive are those of the source. The calls are words filed in the database; no cut-off is given here. Non-standard residues stand in square brackets, D forms with d. Residues, ends and D or L forms follow the SMILES beside them. ξ: configuration not given here. ξS = NC(CO)C(=O)O

T1 sequence (Q96CX2 whole entry, the tested form may be a part): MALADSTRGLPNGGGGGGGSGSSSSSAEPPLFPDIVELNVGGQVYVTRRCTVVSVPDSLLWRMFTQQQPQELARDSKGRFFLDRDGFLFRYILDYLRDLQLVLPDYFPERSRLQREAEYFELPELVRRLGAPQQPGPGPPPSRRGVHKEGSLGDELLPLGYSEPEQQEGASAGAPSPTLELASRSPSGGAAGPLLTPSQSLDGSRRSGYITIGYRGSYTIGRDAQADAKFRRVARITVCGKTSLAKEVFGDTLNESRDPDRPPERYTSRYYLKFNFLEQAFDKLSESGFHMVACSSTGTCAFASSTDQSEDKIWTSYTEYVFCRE
Chain of BTB/POZ domain-containing protein KCTD16 (Mus musculus) (Q5DTY9 whole entry, the tested form may be a part): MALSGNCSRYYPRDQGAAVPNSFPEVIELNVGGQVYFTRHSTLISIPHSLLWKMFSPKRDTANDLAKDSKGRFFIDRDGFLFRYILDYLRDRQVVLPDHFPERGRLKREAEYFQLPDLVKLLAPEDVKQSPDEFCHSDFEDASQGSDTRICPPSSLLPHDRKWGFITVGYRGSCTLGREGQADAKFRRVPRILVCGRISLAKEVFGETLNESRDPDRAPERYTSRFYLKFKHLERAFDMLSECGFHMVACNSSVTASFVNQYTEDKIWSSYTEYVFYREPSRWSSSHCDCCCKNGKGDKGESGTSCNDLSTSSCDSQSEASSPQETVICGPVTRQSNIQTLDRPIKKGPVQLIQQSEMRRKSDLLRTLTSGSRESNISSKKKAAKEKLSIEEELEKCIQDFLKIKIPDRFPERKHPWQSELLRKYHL
Chain of BTB/POZ domain-containing protein KCTD12 (Mus musculus) (Q6WVG3 whole entry, the tested form may be a part): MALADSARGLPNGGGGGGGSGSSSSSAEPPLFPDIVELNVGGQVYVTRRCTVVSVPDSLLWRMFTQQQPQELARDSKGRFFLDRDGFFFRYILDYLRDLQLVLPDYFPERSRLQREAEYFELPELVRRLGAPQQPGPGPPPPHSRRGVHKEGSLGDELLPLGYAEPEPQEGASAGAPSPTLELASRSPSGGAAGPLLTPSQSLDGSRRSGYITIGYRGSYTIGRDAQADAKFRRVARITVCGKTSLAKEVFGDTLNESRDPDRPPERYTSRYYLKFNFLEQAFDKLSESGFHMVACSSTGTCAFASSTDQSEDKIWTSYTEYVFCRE
Chain of BTB/POZ domain-containing protein KCTD16 (Homo sapiens) (Q68DU8 whole entry, the tested form may be a part): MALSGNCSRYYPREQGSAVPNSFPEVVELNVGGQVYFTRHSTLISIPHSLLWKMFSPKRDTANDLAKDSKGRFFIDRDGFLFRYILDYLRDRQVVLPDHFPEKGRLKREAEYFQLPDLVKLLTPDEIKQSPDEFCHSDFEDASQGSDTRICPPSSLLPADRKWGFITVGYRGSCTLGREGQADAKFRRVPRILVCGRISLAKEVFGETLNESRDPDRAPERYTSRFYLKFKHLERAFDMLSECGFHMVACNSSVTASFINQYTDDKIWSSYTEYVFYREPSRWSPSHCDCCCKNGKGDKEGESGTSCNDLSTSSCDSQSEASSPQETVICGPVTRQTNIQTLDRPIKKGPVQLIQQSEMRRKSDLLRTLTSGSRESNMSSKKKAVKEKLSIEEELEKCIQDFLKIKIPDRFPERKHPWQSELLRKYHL
Chain of BTB/POZ domain-containing protein KCTD8 (Mus musculus) (Q50H33 whole entry, the tested form may be a part): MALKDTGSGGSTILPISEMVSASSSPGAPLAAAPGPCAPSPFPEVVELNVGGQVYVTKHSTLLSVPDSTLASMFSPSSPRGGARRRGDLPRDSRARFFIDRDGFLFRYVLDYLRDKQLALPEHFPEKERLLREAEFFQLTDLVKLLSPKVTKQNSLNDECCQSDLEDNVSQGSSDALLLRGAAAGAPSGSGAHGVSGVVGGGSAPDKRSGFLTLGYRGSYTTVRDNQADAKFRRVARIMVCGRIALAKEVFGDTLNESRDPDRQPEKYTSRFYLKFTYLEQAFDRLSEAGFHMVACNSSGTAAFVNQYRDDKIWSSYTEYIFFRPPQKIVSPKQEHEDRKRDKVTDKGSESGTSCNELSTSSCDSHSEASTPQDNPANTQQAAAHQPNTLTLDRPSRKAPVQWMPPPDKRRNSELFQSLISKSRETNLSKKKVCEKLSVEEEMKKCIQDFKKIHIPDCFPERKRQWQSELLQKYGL
Chain of BTB/POZ domain-containing protein KCTD8 (Homo sapiens) (Q6ZWB6 whole entry, the tested form may be a part): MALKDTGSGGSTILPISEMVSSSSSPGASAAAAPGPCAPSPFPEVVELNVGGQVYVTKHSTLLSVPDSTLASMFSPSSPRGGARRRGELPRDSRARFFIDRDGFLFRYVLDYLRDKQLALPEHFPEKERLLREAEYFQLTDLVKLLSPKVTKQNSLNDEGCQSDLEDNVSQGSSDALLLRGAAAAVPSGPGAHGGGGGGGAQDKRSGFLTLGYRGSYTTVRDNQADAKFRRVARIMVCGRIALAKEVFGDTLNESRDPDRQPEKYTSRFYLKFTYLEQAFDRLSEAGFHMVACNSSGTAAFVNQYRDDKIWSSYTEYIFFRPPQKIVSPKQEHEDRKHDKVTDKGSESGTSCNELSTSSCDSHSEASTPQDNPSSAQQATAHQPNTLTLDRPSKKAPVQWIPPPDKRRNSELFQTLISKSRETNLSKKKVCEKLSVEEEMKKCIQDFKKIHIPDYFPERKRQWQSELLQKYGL

As for H-TMKTGSSTNNNEEEK-OH, the EC50 result in experiment [1] is listed as “Not Active”. Still for that read-out and setting: to H-NRELEKIIAEKEERV-OH belongs “Not Active”. For H-SLQLPILHHAYLPYYHYY-OH, in [1] (read-out: EC50), the EC50 was determined as 1360 nM. For the same compound, in [2], the IC50 entry is recorded as “Nd(Insoluble)” and the Ki result is given as “Nd(Insoluble)”. With `CC(C)C[C@H](NC(=O)CNC(=O)CNC(=O)[C@H](CO)NC(=O)[C@@H]1CCCN1C(=O)[C@H](CCC(=O)O)NC(=O)[C@@H]1CCCN1C(=O)[C@@H]1CCCN1C(=O)[C@H](NC(=O)[C@@H]1CCCN1C(=O)[C@@H]1CCCN1C(=O)[C@H](Cc1cnc[nH]1)NC(=O)[C@H](CCCNC(=N)N)NC(=O)[C@@H](N)CCCNC(=N)N)[C@@H](C)O)C(=O)N1CCC[C@H]1C(=O)O`, the EC50 entry in [1] is recorded as “Not Active”. On the same count and under the same terms, as for H-QDTMKTGSSTNNNEE-OH, the entry is “Not Active”. On to H-LQLPILHHAYLPSIG-OH, for which, in [1], the outcome was Active. On to `CC[C@H](C)[C@H](NC(=O)C(CO)NC(=O)[C@@H]1CCCN1C(=O)[C@H](CC(C)C)NC(=O)[C@H](C)NC(=O)[C@H](C)NC(=O)[C@H](Cc1cnc[nH]1)NC(=O)[C@H](Cc1cnc[nH]1)NC(=O)[C@H](CC(C)C)NC(=O)[C@@H](NC(=O)[C@@H]1CCCN1C(=O)[C@H](CC(C)C)NC(=O)[C@H](CCC(N)=O)NC(=O)[C@H](CC(C)C)NC(=O)[C@@H](N)CO)[C@@H](C)CC)C(=O)NCC(=O)NCC(=O)N[C@H](C(=O)O)C(C)C` (some centres not stated) (H-SLQLPILHHAALP[ξS]IGGV-OH), for which, in [1], the EC50 result is “Not Active”. Also, in experiment [2], the IC50 entry was “Not Active” and the Ki result is reported as “Not Active”. Consider H-LEKENRELEKIIAEK-OH, for which, in experiment [1], the half-maximal effective concentration (EC50) entry was “Not Active”. The same measure, in the same setting: to H-IIAEKEERVSELRHQ-OH belongs “Not Active”; to H-EEKSRLLEKENRELE-OH, “Not Active”. H-SLQLPILHHAYLPSIGGV-OH: the result in experiment [3], in experiment [4], in experiment [6], in experiment [7], in experiment [8] and in experiment [9] was Active. The result in experiment [10], in experiment [11], in experiment [12], in experiment [13] and in experiment [14] was Active. For the same compound, the Activity in [5] worked out at 66.4 kDa. For the compound H-HPPTPPEPSGGLPRG-OH, the half-maximal effective concentration (EC50) result in [1] is “Not Active”.

In the case of `CC[C@H](C)[C@H](NC(=O)[C@H](CO)NC(=O)[C@@H]1CCCN1C(=O)[C@H](CC(C)C)NC(=O)[C@H](Cc1ccc(O)cc1)NC(=O)[C@H](C)NC(=O)[C@H](Cc1cnc[nH]1)NC(=O)[C@H](Cc1cnc[nH]1)NC(=O)[C@H](CC(C)C)NC(=O)[C@H](NC(=O)[C@@H]1CCCN1C(=O)[C@H](CC(C)C)NC(=O)[C@H](CCC(N)=O)NC(=O)[C@H](CC(C)C)NC(=O)[C@H](CO)NC(=O)[C@H](CC(C)C)NC(=O)[C@H](CCCNC(=N)N)NC(=O)[C@@H](N)CCCNC(=N)N)[C@@H](C)CC)C(=O)O`, the result in experiment [3] and in experiment [4] was Active. For H-NNNEEEKSRLLEKEN-OH, the EC50 result in experiment [1] is on record as “Not Active”. For H-KENRELEKIIAEKEE-OH, the EC50 result in [1] was “Not Active”. With `CC[C@H](C)[C@H](NC(=O)[C@H](CO)NC(=O)[C@@H]1CCCN1C(=O)[C@H](CC(C)C)NC(=O)[C@H](Cc1ccc(O)cc1)NC(=O)[C@H](C)NC(=O)[C@H](Cc1cnc[nH]1)NC(=O)[C@H](Cc1cnc[nH]1)NC(=O)[C@H](CC(C)C)NC(=O)[C@H](NC(=O)[C@@H]1CCCN1C(=O)[C@H](Cc1ccc(O)cc1)NC(=O)[C@H](CC(N)=O)NC(=O)[C@H](Cc1ccc(O)cc1)NC(=O)[C@H](N)Cc1ccc(O)cc1)[C@@H](C)CC)C(=O)NCC(=O)NCC(=O)N[C@H](C(=O)O)C(C)C`, the Activity in experiment [5] is 60.1 kDa. Also, the result in [6], in experiment [7], in [8], in experiment [9], in experiment [10] and in experiment [11] was Active. In addition, the outcome in experiment [12], in [13] and in experiment [14] was Active. Take H-GSSTNNNEEEKSRLL-OH: the concentration for a half-maximal effect (EC50) entry in [1] was “Not Active”. Still for that read-out and setting: as for H-GLPRGPPEPPDRLSC-OH, the entry is “Not Active”; as for H-RLLEKENRELEKIIA-OH, “Not Active”; as for H-EKIIAEKEERVSELR-OH, “Not Active”. For the compound H-SLQLPIAHHAALPSIGGV-OH, the outcome in experiment [7], in experiment [8], in experiment [9], in [10], in [11] and in experiment [12] was inactive. Moreover, the result in experiment [13] and in experiment [14] was inactive. For H-LPILHHAYLPSIGGV-OH, the outcome in experiment [1] was Active. Consider `CC(C)C[C@H](NC(=O)[C@H](CCCNC(=N)N)NC(=O)[C@H](CC(=O)O)NC(=O)[C@@H]1CCCN1C(=O)[C@@H]1CCCN1C(=O)[C@H](CCC(=O)O)NC(=O)[C@@H]1CCCN1)C(=O)N[C@@H](CO)C(=O)N[C@@H](CS)C(=O)N[C@@H](CC(=O)O)C(=O)NCC(=O)N[C@@H](CO)C(=O)N[C@@H](CCCNC(=N)N)C(=O)N[C@H](C(=O)N[C@@H](Cc1cnc[nH]1)C(=O)O)C(C)C`, for which the 50% effective concentration (EC50) result in [1] was “Not Active”. Same read-out and setting: as for H-KEERVSELRHQLQSR-OH, the entry is “Not Active”. The same measure, in the same setting: to H-NEEEKSRLLEKENRE-OH belongs “Not Active”. Same read-out and setting: as for H-GPPEPPDRLSCDGSR-OH, the entry is “Not Active”. As to H-KTGSSTNNNEEEKSR-OH, the EC50 result in [1] is reported as “Not Active”.

With H-PTPPEPSGGLPRGPP-OH, in experiment [1], the concentration giving a half-maximal response (EC50) entry is recorded as “Not Active”. The same measure, in the same setting: to H-PRGPPEPPDRLSCDG-OH belongs “Not Active”. In the case of H-SLQLPILHHAYLPSYHYY-OH, the concentration for a half-maximal effect (EC50) in [1] (read-out: EC50) turned out to be 210 nM. In experiment [2], the IC50 result is reported as “Nd(Insoluble)” and the Ki result is “Nd(Insoluble)”. As for H-ELEKIIAEKEERVSE-OH, the half-maximal effective concentration (EC50) entry in experiment [1] is reported as “Not Active”. On the same count and under the same terms, as for H-STNNNEEEKSRLLEK-OH, the entry is “Not Active”. The same measure, in the same setting: as for H-EAQDTMKTGSSTNNN-OH, the entry is “Not Active”; as for H-AEKEERVSELRHQLQ-OH, “Not Active”.

Take H-PPEPSGGLPRGPPEP-OH: the EC50 entry in [1] is listed as “Not Active”. On the same count and under the same terms, to H-SGGLPRGPPEPPDRL-OH belongs “Not Active”.

In the case of H-SLQLPILHHAYLPSI-OH, the outcome in [1] was Active. In the case of `CC[C@H](C)[C@H](NC(=O)C(CO)NC(=O)[C@@H]1CCCN1C(=O)[C@H](CC(C)C)NC(=O)[C@H](Cc1ccccc1)NC(=O)[C@H](C)NC(=O)[C@H](Cc1cnc[nH]1)NC(=O)[C@H](Cc1cnc[nH]1)NC(=O)[C@H](CC(C)C)NC(=O)[C@@H](NC(=O)[C@@H]1CCCN1C(=O)[C@H](CC(C)C)NC(=O)[C@H](CCC(N)=O)NC(=O)[C@H](CC(C)C)NC(=O)[C@@H](N)CO)[C@@H](C)CC)C(=O)NCC(=O)NCC(=O)N[C@H](C(=O)O)C(C)C` (some centres not stated) (H-SLQLPILHHAFLP[ξS]IGGV-OH), in experiment [1], the EC50 result was “Not Active”. In experiment [2], the IC50 entry is listed as “Not Active” and the Ki result is reported as “Not Active”.

Take H-QLPILHHAYLPSIGG-OH: the result in experiment [1] was Active. For H-KSRLLEKENRELEKI-OH, the concentration giving a half-maximal response (EC50) entry in experiment [1] is listed as “Not Active”. Consider H-EPSGGLPRGPPEPPD-OH, for which the EC50 entry in experiment [1] is given as “Not Active”.

The EC50 is the concentration that produces a half-maximal response.

The values are drawn from ChEMBL document CHEMBL4321811, “Targeting the γ-Aminobutyric Acid Type B (GABAB) Receptor Complex: Development of Inhibitors Targeting the K+ Channel Tetramerization Domain (KCTD) Containing Proteins/GABAB Receptor Protein-Protein Interaction” (J Med Chem, 2019).
